Values of other authors in US10076117B2, “Pesticide formulation comprising a water soluble active ingredient and a penetration enhancer and use of the same” (ROTAM AGROCHEM INTERNATIONAL COMPANY LIMITED, priority 2014, dated 2018).

Conditions: water

COP(=O)(NC(C)=O)SC (stereo not shown) [acephate]
solubility: 650 g in 1 L of water
